In patent US11253516B2, “N2,N4-diphenylpyrimidine-2,4-diamine derivative, method for preparing same, and pharmaceutical composition containing same as active ingredient for prevention or treatment of cancer” (Korea Research Institute of Chemical Technology, priority 2017, dated 2022):
Where two headings read alike, the source gives them in different places.

Assays:
FLT3(R834Q) = FLT3(R834Q) (Homo sapiens (Human), UniProt P36888, R834Q); assay: KINOMEscan binding, FLT3(R834Q)
Protocol: (§1) The inhibitory activity on FLT kinase, such as wild-type FLT1, FLT3, FLT4, and FLT3 mutation forms, FLT3(D835H), FLT3(D835V), FLT3(D835Y), FLT3(ITD), FLT3(ITD,D835V), FLT3(ITD,F691L), FLT3(K663Q), FLT3(N841I), FLT3(R834Q) was measured.
(§2) FLT3 kinase inhibition was carried out by KINOMEscan method (DiscoverX Inc.). KINOMEscan method consists of the following processes. T7 bacteriophage labeled with FLT kinase was cultured by the infection to E. coli derived from BL21. After the infection of E. coli in the condition of 0.4 of MOI (multiplicity of infection), it was cultured for 90 to 150 minutes at 32° C. to lyse E. coli. The cell debris was removed by centrifugation and filtration, and the kinase protein present in the supernatant was secured. Additionally, the kinase protein was labeled with DNA for the qPCR measurement. The magnetic beads labeled with streptavidin were treated with the standard compound labeled with biotin and reacted for 30 minutes. The resulting beads were used as affinity beads for the measurement of a kinase activity. The binding reaction was initiated with mixing a kinase protein, the affinity beads bound with a ligand, and the compound. In this case, the used buffer solution was 20% SeaBlock, 0.17×PBS, 0.05% Tween 20, 6 mM DTT. […] The affinity of the compound to be tested was indirectly measured by Quantifying the eluted kinase by […].

EGFR del19/T790M/C797S = EGFR del19/T790M/C797S (Homo sapiens, UniProt P00533, C797S/DEL746-750/T790M); assay: HTRF enzyme assay, EGFR del19/T790M/C797S; assay type: biochemical
Protocol: (§3) The measurement of an activity on wild-type and EGFR mutation enzyme of the compound of the present invention was experimented by utilizing the HTRF system sold by Cisbio, as follow.
(§4) The composition of the assay buffer used in the activity measurement was 50 mM Tris-HCl pH 7.5, 100 mM NaCl, 7.5 mM MgCl2, 3 mM KCl, 0.01% Tween 20, 0.1% BSA, 1 mM DTT. The enzymatic reaction was carried out hereto by using the peptide substrate labeled with ATP of […] concentration and biotin of […] concentration. The analysis of an EGFR activity inhibitory effect of the compound was carried out in accordance with the analysis reaction recipe below.
(§5) Component 1: […] of EGFR wild-type or mutation enzyme
(§6) Component 2: […] of compound solution
(§7) Component 3: […] of peptide labeled with ATP and biotin
(§8) The enzymatic reaction was initiated by mixing Component 1 and Component 2 first, and then, adding component 3. After the reaction for 2 hours at 37° C., […] of a measurement solution consisting of streptavidin-XL665 provided by Cisbio and anti-phosphotyrosine antibody labeled with europium was added to the enzymatic reaction solution and reacted for 1 hour at ambient temperature. […] The measurement values measured at the seven concentrations of the compound were analyzed by using the Prism program (version 5.01, Graphpad Software, Inc.), and IC50 value of the compound was calculated, which is an inhibitory ability indicator.

FLT4 = FLT4 (Homo sapiens (Human), UniProt P35916); assay: KINOMEscan binding, FLT4
Chain of FLT4 (P35916 25-1363): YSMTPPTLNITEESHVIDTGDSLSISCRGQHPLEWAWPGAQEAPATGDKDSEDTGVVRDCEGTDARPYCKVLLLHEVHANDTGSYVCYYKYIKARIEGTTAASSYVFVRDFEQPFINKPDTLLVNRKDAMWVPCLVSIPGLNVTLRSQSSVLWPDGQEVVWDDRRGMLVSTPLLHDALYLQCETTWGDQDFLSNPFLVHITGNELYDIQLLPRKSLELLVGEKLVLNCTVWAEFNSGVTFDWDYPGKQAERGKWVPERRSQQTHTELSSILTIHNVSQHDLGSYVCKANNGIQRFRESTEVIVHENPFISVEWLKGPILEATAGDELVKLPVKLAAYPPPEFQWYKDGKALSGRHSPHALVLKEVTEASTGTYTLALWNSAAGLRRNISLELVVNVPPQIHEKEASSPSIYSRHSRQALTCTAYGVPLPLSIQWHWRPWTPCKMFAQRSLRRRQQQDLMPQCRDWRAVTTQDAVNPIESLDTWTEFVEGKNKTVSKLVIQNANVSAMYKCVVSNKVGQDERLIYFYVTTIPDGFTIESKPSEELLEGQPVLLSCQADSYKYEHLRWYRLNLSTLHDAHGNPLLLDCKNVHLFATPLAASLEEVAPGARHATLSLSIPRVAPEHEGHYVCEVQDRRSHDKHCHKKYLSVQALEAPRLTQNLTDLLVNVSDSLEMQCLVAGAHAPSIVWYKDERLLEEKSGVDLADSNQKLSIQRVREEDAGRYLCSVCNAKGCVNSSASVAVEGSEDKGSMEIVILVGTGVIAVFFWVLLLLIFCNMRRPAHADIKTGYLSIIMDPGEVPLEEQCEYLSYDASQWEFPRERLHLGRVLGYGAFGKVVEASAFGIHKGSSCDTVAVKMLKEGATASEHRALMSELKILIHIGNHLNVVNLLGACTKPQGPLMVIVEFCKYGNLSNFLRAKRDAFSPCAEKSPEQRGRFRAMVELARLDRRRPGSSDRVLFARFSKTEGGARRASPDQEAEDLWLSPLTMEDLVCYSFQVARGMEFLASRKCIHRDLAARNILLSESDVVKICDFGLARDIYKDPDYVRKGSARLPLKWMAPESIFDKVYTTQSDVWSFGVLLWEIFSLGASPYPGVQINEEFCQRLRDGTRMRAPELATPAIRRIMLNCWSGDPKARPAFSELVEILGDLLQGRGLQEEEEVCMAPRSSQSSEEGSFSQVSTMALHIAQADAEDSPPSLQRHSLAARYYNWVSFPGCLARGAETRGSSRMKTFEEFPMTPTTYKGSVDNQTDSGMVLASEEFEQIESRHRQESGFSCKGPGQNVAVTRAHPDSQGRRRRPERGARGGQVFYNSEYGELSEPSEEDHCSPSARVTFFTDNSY
Protocol: as §1, §2

FLT3 = FLT3 (Homo sapiens (Human), UniProt P36888); assay: KINOMEscan binding, FLT3; details: for inhibitory ability on FLT 3 kinase in comparison with FLT 1 and FLT 4: selectivity in words
Protocol: as §1
FLT3 kinase inhibition was carried out by KINOMEscan method (DiscoverX Inc.). KINOMEscan method consists of the following processes. T7 bacteriophage labeled with FLT kinase was cultured by the infection to E. coli derived from BL21. After the infection of E. coli in the condition of 0.4 of MOI (multiplicity of infection), it was cultured for 90 to 150 minutes at 32° C. to lyse E. coli. The cell debris was removed by centrifugation and filtration, and the kinase protein present in the supernatant was secured. Additionally, the kinase protein was labeled with DNA for the qPCR measurement. The magnetic beads labeled with streptavidin were treated with the standard compound labeled with biotin and reacted for 30 minutes. The resulting beads were used as affinity beads for the measurement of a kinase activity. The binding reaction was initiated with mixing a kinase protein, the affinity beads bound with a ligand, and the compound. In this case, the used buffer solution was 20% SeaBlock, 0.17×PBS, 0.05% Tween 20, 6 mM DTT. All the reactions were carried out in volume of 20 ul at a 384 well plate. After the reaction for 1 hour at ambient temperature, the beads were washed with the solution consisting of 1×PBS, 0.05 Tween 20. Finally, the kinase bound with the beads was eluted by using 1×PBS, 0.05 Tween 20, 0.5 uM standard compound unlabeled with biotin. The affinity of the compound to be tested was indirectly measured by Quantifying the eluted kinase by […].

[1] = tested on: Ba/F3 EGFR del19/T790M/C797S cell line; assay: CellTiter-Glo cell viability, Ba/F3 EGFR del19/T790M/C797S; assay type: cell-based; details: read-out: Ba/F3 EGFR del19/T790M/C797S IC50
Protocol: (§9) The measurement of an activity on wild-type and mutation Ba/F3 EGFR cell line of the compound of the present invention was experimented by utilizing the CellTiter-Glo system sold by Promega, as follow. The CellTiter-Glo assay is a method for measuring the ATP present in cells in cell culture conditions to determine the cell viability.
(§10) The analysis of an EGFR inhibitory ability effect of the compound was carried out in accordance with the analysis reaction recipe below.
(§11) After the reaction of 72 hours, the plate treated with the compound was allowed to stand for 30 minutes at ambient temperature, and then, was further treated with 100 μl of the reagent, and was shaked for 10 minutes at ambient temperature.

[2] = tested on: Ba/F3 EGFR del19 cell line; assay: CellTiter-Glo cell viability, Ba/F3 EGFR del19; assay type: cell-based; details: 72 hours
Protocol: as §9, §10
(§12) After the reaction of 72 hours, the plate treated with the compound was allowed to stand for 30 minutes at ambient temperature, and then, was further treated with 100 μl of the reagent, and was shaked for 10 minutes at ambient temperature. […] The measurement values measured at the eight concentrations of the compound were analyzed by using the Prism program (version 5.01, Graphpad Software, Inc.), and IC50 value of the compound was calculated, which is an inhibitory ability indicator.

FLT3(ITD, D835V) = FLT3(ITD, D835V) (Homo sapiens, UniProt P36888, D835V/ITD); assay: KINOMEscan binding, FLT3(ITD, D835V)
Protocol: as §1, §2

EGFR del19 = EGFR del19 (Homo sapiens (Human), UniProt P00533, DEL746-750); assay: HTRF enzyme assay, EGFR del19; assay type: biochemical; details: recombinant enzyme
Chain of EGFR del19 (P00533 other isoform, or with tags, fused parts or gaps del 1-668/del 746-750 limits assumed): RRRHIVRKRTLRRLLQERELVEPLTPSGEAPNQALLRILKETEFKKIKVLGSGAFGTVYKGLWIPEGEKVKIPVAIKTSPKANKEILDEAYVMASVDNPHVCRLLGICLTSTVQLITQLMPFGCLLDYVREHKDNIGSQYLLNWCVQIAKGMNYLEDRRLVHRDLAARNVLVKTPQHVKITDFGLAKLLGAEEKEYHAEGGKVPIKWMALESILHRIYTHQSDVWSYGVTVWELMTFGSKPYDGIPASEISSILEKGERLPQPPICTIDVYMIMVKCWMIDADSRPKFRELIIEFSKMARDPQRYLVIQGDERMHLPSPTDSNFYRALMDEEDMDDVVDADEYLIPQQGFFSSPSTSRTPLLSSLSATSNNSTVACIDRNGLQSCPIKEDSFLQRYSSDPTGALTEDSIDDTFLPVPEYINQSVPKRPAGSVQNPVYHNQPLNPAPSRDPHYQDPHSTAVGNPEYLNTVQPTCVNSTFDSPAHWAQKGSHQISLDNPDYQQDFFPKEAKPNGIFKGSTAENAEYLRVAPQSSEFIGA
Protocol: as §3, §4, §5, §6, §7, §8

[3] = tested on: Ba/F3 EGFR del19/T790M cell line; assay: CellTiter-Glo cell viability, Ba/F3 EGFR del19/T790M; assay type: cell-based; details: read-out: Ba/F3 EGFR del19/T790M IC50
Protocol: as §9, §10, §11

Ba/F3 EGFR wt. cell line = assay: CellTiter-Glo cell viability, Ba/F3 EGFR wild-type; assay type: cell-based; details: 72 hours
Protocol: as §9, §10, §12

FLT3(ITD, F691L) = FLT3(ITD, F691L) (Homo sapiens, UniProt P36888, F691L/ITD); assay: KINOMEscan binding, FLT3(ITD, F691L)
Protocol: as §1, §2

FLT1 = FLT1 (Homo sapiens (Human), UniProt P17948); assay: KINOMEscan binding, FLT1
Chain of FLT1 (P17948 27-1338): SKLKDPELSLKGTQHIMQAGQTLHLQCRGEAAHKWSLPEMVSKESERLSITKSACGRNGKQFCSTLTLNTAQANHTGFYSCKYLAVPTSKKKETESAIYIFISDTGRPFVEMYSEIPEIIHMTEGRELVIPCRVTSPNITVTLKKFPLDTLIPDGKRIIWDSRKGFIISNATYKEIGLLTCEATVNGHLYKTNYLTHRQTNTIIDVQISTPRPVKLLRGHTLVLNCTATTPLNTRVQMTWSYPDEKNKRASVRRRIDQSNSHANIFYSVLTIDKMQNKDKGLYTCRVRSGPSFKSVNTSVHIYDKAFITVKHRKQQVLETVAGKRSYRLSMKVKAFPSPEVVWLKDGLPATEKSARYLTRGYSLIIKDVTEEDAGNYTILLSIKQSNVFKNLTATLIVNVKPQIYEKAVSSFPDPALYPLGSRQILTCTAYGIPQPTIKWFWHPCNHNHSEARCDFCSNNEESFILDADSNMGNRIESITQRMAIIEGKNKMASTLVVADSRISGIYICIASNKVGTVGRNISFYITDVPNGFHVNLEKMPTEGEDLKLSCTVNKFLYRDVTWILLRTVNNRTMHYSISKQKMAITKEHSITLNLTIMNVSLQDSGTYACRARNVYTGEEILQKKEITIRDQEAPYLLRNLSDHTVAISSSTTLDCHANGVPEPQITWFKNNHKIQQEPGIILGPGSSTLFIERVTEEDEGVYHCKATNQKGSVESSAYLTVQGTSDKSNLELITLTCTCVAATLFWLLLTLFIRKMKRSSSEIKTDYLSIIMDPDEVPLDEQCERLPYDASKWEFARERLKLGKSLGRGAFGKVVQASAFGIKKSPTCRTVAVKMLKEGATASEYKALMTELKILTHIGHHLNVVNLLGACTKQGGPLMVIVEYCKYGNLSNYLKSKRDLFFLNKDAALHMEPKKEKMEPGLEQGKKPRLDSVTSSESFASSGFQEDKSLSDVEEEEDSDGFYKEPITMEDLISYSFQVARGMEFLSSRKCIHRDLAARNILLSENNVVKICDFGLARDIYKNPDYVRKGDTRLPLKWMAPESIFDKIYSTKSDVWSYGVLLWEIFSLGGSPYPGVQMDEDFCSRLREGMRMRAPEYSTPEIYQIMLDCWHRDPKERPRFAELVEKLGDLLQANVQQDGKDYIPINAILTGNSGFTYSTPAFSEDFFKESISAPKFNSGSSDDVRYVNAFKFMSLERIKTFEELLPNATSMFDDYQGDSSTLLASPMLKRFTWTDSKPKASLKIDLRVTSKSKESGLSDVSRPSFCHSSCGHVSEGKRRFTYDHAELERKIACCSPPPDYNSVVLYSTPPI
Protocol: as §1, §2

EGFR wt. = EGFR wt. (Homo sapiens (Human), UniProt P00533); assay: HTRF enzyme assay, wild-type EGFR; assay type: biochemical; details: recombinant enzyme
Chain of EGFR wt. (P00533 25-1210): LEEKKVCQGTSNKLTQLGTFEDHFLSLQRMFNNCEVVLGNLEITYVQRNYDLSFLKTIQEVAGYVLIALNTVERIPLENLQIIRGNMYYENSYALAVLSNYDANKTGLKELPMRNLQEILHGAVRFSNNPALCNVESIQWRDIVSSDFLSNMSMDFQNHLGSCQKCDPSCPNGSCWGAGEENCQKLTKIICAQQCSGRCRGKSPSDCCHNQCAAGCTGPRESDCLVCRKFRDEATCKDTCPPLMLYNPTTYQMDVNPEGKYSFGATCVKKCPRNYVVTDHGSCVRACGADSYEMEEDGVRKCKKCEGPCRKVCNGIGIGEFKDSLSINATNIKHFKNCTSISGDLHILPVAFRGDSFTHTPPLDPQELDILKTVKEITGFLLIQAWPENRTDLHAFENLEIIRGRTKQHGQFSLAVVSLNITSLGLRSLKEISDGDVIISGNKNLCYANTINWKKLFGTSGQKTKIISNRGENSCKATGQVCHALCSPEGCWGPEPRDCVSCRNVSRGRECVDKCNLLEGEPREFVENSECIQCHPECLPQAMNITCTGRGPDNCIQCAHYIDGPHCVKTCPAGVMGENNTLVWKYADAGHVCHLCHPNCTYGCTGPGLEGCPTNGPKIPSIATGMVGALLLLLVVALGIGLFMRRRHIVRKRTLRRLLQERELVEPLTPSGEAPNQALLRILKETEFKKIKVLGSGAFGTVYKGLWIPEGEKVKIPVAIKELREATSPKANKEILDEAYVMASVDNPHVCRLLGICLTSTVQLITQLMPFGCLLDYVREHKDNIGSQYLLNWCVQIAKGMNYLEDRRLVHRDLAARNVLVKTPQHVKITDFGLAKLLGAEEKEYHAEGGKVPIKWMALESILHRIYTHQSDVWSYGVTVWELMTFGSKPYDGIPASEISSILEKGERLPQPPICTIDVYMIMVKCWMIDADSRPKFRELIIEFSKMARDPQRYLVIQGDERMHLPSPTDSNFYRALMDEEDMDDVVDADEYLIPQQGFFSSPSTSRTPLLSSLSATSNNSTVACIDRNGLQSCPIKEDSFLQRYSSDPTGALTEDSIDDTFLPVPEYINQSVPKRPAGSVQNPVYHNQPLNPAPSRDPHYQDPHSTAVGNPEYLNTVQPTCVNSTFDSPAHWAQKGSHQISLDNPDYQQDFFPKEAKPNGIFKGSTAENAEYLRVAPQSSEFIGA
Protocol: as §3, §4, §5, §6, §7, §8

FLT3(D835H) = FLT3(D835H) (Homo sapiens (Human), UniProt P36888, D835H); assay: KINOMEscan binding, FLT3(D835H)
Protocol: as §1, §2

FLT3(K663Q) = FLT3(K663Q) (Homo sapiens (Human), UniProt P36888, K663Q); assay: KINOMEscan binding, FLT3(K663Q)
Protocol: as §1, §2

EGFR del19/T790M = EGFR del19/T790M (Homo sapiens (Human), UniProt P00533, DEL746-750/T790M); assay: HTRF enzyme assay, EGFR del19/T790M; assay type: biochemical; details: recombinant enzyme
Chain of EGFR del19/T790M (P00533 other isoform, or with tags, fused parts or gaps T790M/del 1-668/del 746-750 limits assumed): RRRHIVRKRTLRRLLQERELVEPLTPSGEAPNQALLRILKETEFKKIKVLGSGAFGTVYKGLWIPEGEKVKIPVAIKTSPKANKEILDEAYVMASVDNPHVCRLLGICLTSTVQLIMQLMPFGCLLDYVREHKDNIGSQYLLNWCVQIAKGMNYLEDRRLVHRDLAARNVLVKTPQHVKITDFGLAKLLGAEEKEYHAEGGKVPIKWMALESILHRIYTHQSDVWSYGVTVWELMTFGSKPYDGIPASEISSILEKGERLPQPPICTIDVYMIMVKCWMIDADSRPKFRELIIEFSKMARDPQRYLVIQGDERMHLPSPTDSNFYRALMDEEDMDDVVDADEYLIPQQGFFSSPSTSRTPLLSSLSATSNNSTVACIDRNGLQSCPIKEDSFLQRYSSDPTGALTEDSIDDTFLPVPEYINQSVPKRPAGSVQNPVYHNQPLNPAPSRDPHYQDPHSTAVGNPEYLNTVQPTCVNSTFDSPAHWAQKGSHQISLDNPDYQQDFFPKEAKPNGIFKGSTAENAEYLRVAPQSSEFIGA
Protocol: as §3, §4, §5, §6, §7, §8

IC50 (EGFR del19/T790M/C797S; HTRF, recombinant enzyme, read-out: EGFR del19/T790M/C797S IC50) [nM]	IC50 ([1]; CellTiter-Glo, 72 hours) [nM]	IC50 ([3]; CellTiter-Glo, 72 hours) [nM]	Compound	Kd (FLT3(R834Q)) [nM]	IC50 (EGFR del19/T790M/C797S) [nM]	Kd (FLT4) [nM]	Kd (FLT3) [nM]	inhibitory ability on FLT 3 kinase in comparison with FLT 1 and FLT 4 (FLT3)	IC50 ([1]; 72 h) [nM]	IC50 [2] [nM]	Kd (FLT3(ITD, D835V)) [nM]	IC50 (EGFR del19) [nM]	IC50 ([3]; 72 h) [nM]	IC50 (Ba/F3 EGFR wt. cell line) [nM]	Kd (FLT3(ITD, F691L)) [nM]	Kd (FLT1) [nM]	IC50 (EGFR wt.) [nM]	Kd (FLT3(D835H)) [nM]	Kd (FLT3(K663Q)) [nM]	IC50 (EGFR del19/T790M) [nM]
–	–	–	COc1cc(N2CCC(N3CCN(C)CC3)CC2)ccc1Nc1ncc(Cl)c(Nc2ccccc2NS(C)(=O)=O)n1 [Example 10, N-(2-((5-chloro-2-((2-methoxy-4-(4-(4-methylpiperazin-1-yl)piperidin-1-yl)phenyl)amino)pyrimidin-4-yl)amino)phenyl)methanesulfonamide]	33	0.2	200	3.7	selectively superior inhibitory ability	63	180	0.32	0.7	99	1000	1.1	> 10000	430	38	39	4
6	38	31	COc1cc(N2CCC(N(C)C)CC2)ccc1Nc1ncc(Cl)c(Nc2ccccc2NS(C)(=O)=O)n1 [Example 11, N-(2-((5-chloro-2-((4-(4-(dimethylamino)piperidin-1-yl)-2-methoxyphenyl)amino)pyrimidin-4-yl)amino)phenyl)methanesulfonamide]	19	–	81	1.2	selectively superior inhibitory ability	–	4.7	0.16	7.8	–	340	0.27	910	280	1.8	20	3.1
